Where two headings read alike, the source gives them in different places.
How the values were obtained:
SARS-CoV-2 [1] = test: Confirmation test of suppressing effect against SARS-CoV-2 proliferation (nucleocapsid Western blotting, VeroE6/TMPRSS2 cells); assay type: cell-based; settings: 20 μM Pin1 inhibitor, VeroE6/TMPRSS2 cells, MOI 10, cell lysate 8 hours after infection, nucleocapsid band area vs no inhibitor; for inhibition at 20 µM: Severe acute respiratory syndrome coronavirus 2, VeroE6/TMPRSS2, 8 h, read-out: Inhibition Rate
SARS-CoV-2 [2] = test: Suppressing effect against SARS-CoV-2 proliferation at 5 or 10 μM (nucleocapsid Western blotting); assay type: cell-based; settings: 5 μM, MOI 10, cell lysate 8 hours after infection
[3] = test system: feline coronavirus (FCoV); settings: cited from earlier work
SARS-CoV-2 [4] = test: Inhibitory effect of ATRA on SARS-CoV-2 proliferation (nucleocapsid Western blotting and real-time PCR); assay type: cell-based; settings: MOI 0.01, 24 hours
Description: In this Example, the inhibitory effect of SARS-CoV-2 proliferation by ATRA, a therapeutic agent for promyelocytic leukemia known to have inhibitory activity against Pin1. ATRA was added to VeroE6/TMPRSS2 cells to the final concentrations of 0, 0.5, 1, 5, 10, 20, and 30 μM, to which SARS-CoV-2 was infected at multiplicity of infection (MOI) of 0.01 after 2 hours, followed by recovering cell lysate after 24 hours and then detecting SARS-CoV-2 nucleocapsid, Pin1 and actin as an internal standard in the cells by Western blotting. SARS-CoV-2 proliferation was evaluated on the basis of the expression level of SARS-CoV-2 nucleocapsid in the cells.

SARS-CoV-2 [5] = assay type: cell-based; settings: MOI 0.01, 24 hours after infection, real-time PCR
SARS-CoV-2 [6] = assay type: cell-based; settings: MOI 0.01 to 0.02, 24 hours

Row | Compound | inhibition at 20 µM (SARS-CoV-2 [1]) | other results
1 | O=C(Cn1c2ccccc2c2ccccc21)Nc1ccc(OCc2ccc3ccccc3c2)cc1C(=O)O [H-537] | 96% | inhibition rate of SARS-CoV-2 nucleocapsid (Western blotting) (SARS-CoV-2 [2]): high inhibition rate
2 | O=C(O)c1cc(NC(=O)c2ccc3ccccc3n2)cc(NC(=O)n2c3ccccc3c3ccccc32)c1 [H-688] | 98% | inhibition rate of SARS-CoV-2 nucleocapsid (Western blotting) (SARS-CoV-2 [2]): high inhibition rate
3 | S=C(SC(=S)N1CCCCC1)N1CCCCC1 [dipentamethylenethiuram monosulfide] |  | replication of feline coronavirus (FCoV) [3]: inhibited
4 | CC1=C(/C=C/C(C)=C/C=C/C(C)=C/C(=O)O)C(C)(C)CCC1 [ATRA] |  | proliferation of SARS-CoV-2 (SARS-CoV-2 [4]; 5 μM or more): suppressed; proliferation of SARS-CoV-2 (SARS-CoV-2 [4]; 10 μM or more): substantially suppressed
5 | O=C(Nc1ccc(OCc2ccccc2)cc1C(=O)O)c1ccc2ccccc2c1 [H-77] |  | Inhibition Rate (SARS-CoV-2 [1]): 96%; proliferation of SARS-CoV-2 (SARS-CoV-2 RNA level in supernatant) (SARS-CoV-2 [5]; 5 μM): suppressed; proliferation of SARS-CoV-2 (SARS-CoV-2 RNA level in supernatant) (SARS-CoV-2 [5]; 7.5 μM): substantially suppressed; inhibition rate of SARS-CoV-2 nucleocapsid (Western blotting) (SARS-CoV-2 [2]): high inhibition rate; SARS-CoV-2 proliferation (SARS-CoV-2 [6]; 10 μM added 2 hours before the infection): suppressed; SARS-CoV-2 detection (SARS-CoV-2 [6]; 10 μM added 6 hours after the infection): slightly detected; SARS-CoV-2 proliferation (SARS-CoV-2 [6]; 10 μM added after the infection (2 hours, 6 hours)): suppressed; SARS-CoV-2 proliferation (SARS-CoV-2 [6]; 10 μM added at the time of the infection): suppressed
6 | Nc1cc(NC(=O)C2c3ccccc3-c3ccccc32)cc(C(=O)OCc2ccccc2)c1 [H-755] | 78% | 
7 | COC(=O)/C(=C/c1ccc2ccccc2c1)CC(=O)N1CCCc2ccccc21 [H-739] | 51% | 
8 | COC(=O)c1cc(NC(=O)c2cccnc2)cc(NC(=O)n2c3ccccc3c3ccccc32)c1 [H-680] | 53% | 
9 | CC(C)(C)OC(=O)N[C@@H](Cc1ccccc1)C(=O)O[C@H](Cc1ccc2ccccc2c1)C(=O)O [H-248] | 88% | 
10 | O=C(O[C@H](Cc1ccc2ccccc2c1)C(=O)O)c1ccc(Oc2ccccc2)cc1 [H-123] | 99% | 
11 | O=C(O)[C@@H](Cc1ccc2ccccc2c1)NC(=O)n1c2ccccc2c2ccccc21 [H-853] | 99% | 
12 | COC(=O)c1cc(NC(=O)c2ccc3ccccc3c2)c[n+](Cc2ccc3ccccc3c2)c1 [H-626] | 88% | 
13 | O=C(O[C@H](Cc1ccc2ccccc2c1)C(=O)O)C1c2ccccc2-c2ccc(Cl)cc21 (some centres unmarked) [H-263] | 54% | 
14 | O=C(O)c1cc(OCc2ccccc2)ccc1NC(=O)c1cccc2ccccc12 [H-370] | 98% | 
15 | O=C(Cn1c2ccccc2c2ccccc21)N[C@H](Cc1ccc2ccccc2c1)C(=O)O [H-536] | 75% | 
16 | COC(=O)/C(=C/c1ccc2c(c1)OCO2)CC(=O)Nc1cccc2ccccc12 [H-669] | 64% | 
